According to patent publication US20070191461A1, “USE OF BENZO-HETEROARYL SULFAMIDE DERIVATIVES FOR THE TREATMENT OF MIGRAINE” (priority 2006, published 2007):
Values joined by “and” are separate entries in the source; they are usually repeats but may differ in a detail not shown here. Equal entries are not always repeated.

Tests used:
[1] = system: KCl-induced cortical spreading depression; test: Cortical spreading depression (CSD) assay as model of migraine; assay type: in vivo, Sprague-Dawley rats; settings: rats, 100 mg/kg/day p.o. for 35 days
Experimental: Cortical spreading depression (CSD) has been implicated in migraine and as a headache trigger, and can be evoked in experimental animals by electrical or chemical stimulation (Kunkler & Kraig, 2003; Lauritzen et al., 1982; Moskowitz, 1984).
(§1) Adult male Sprague-Dawley rats (250-600 g) were divided into two treatment groups: vehicle (0.5% methylcellulose; n=13) and Compound #1 (100 mg/kg/day, p.o.; n=7). Results were compared to historical positive controls with valproic acid at 200 mg/kg/day, i.p.
Vehicle or Compound #1 was administered orally once a day for 35 days. On the last day of treatment, rats continued to receive food and water ad libitum, and were given their daily oral dose of vehicle or Compound #1 approximately 1.5 h prior to CSD testing. Rats were anesthetized using isoflurane and intubated via a tracheotomy for mechanical ventilation. Body temperature, blood pressure and heart rate were monitored throughout the procedure to ensure homeostasis. […] The steady (DC) potential and electrocorticogram (EcoG) were recorded with glass micropipettes filled with 200 mM NaCl, […] below the dural surface. […] The number of KCL-induced CSDs was counted for 2 hours. Propagation speed was calculated from the distance (mm) between the recording electrodes 1 and 2, divided by the latency (min) between the CSDs recorded at these sites. […]

[2] = Body weight and systemic physiology monitoring during CSD testing; assay type: in vivo, Sprague-Dawley rats; settings: rats, 100 mg/kg/day p.o. for 35 days
Experimental: as §1
Vehicle or Compound #1 was administered orally once a day for 35 days. On the last day of treatment, rats continued to receive food and water ad libitum, and were given their daily oral dose of vehicle or Compound #1 approximately 1.5 h prior to CSD testing. Rats were anesthetized using isoflurane and intubated via a tracheotomy for mechanical ventilation. Body temperature, blood pressure and heart rate were monitored throughout the procedure to ensure homeostasis. Rats were placed in a stereotaxic frame and three burr holes were drilled under saline cooling over the right hemisphere at the following coordinates (mm from bregma): (1) posterior 4.5, lateral 2.0 (occipital cortex): KCL application; (2) posterior 0.5, lateral 2.0 (parietal cortex): recording site 1; (3) anterior 2, lateral 2 (frontal cortex): recording site 2. Dura overlying the occipital cortex was gently removed. The steady (DC) potential and electrocorticogram (EcoG) were recorded with glass micropipettes filled with 200 mM NaCl, […] below the dural surface. An Ag/AgCl reference electrode was placed subcutaneously in the neck. Following surgical preparation, the cortex was allowed to recover for 30 minutes under saline irrigation. Cortical spreading depressions were initiated by placing a cotton ball soaked with 1 M KCl on the pial surface. The number of KCL-induced CSDs was counted for 2 hours. Propagation speed was calculated from the distance (mm) between the recording electrodes 1 and 2, divided by the latency (min) between the CSDs recorded at these sites.

[3] = system: KCl-induced cortical spreading depression; settings: historical positive control, 200 mg/kg/day i.p. for 4 weeks; saline vehicle 18; p<0.05; cited from earlier work

Compound | Propagation Speed ([1]; KCl-induced CSD, vehicle 3.2 ± 1, p=0.06) | CSDs (2 h) ≧5 mV (number of KCl-induced cortical spreading depressions) ([1]; last dose approx. 1.5 h before testing, topical 1 M KCl, counted for 2 hours, vehicle 16 ± 3, p=0.12) | Physiological monitoring, including arterial pH, pCO2, pO2 and blood pressure, versus vehicle [2] | Systemic Physiology: BP (blood pressure) ([2]; during CSD testing) | Systemic Physiology: pCO2 ([2]; during CSD testing) | Systemic Physiology: pH (arterial) ([2]; during CSD testing) | Systemic Physiology: pO2 ([2]; during CSD testing) | Number of cortical spreading depressions [3]
NS(=O)(=O)NCc1csc2ccccc12 [Compound #1, N-(benzo[b]thien-3-ylmethyl)-sulfamide] | 2.8 ± 0.3 mm/min | 12 and 12 ± 5 | did not differ between the groups | 102 ± 6 | 42 ± 6 | 7.4 ± 0.05 | 154 ± 23 | –
CCCC(CCC)C(=O)O [valproate, valproic acid] | – | – | – | – | – | – | – | 12
